Tests used:
[1] = system: male subjects with hormone refractory prostate cancer; assay: Crosslinked N-telopeptide levels of treated subjects; assay type: in vivo, human; conditions: subjects treated versus placebo
Protocol: (§1) Studies were performed on male subjects with asymptomatic hormone refractory prostate cancer with rising PSA levels and on male subjects with symptomatic hormone refractory prostate cancer with rising PSA levels and pain. Subjects in the phase II studies had castrate levels of testosterone, either due to pharmacologic intervention, via leuprolide (Lupron®) or goserelin (Zoladex®), or via surgical castration. Subjects received ABT-627 or placebo. The following tests were conducted:
(§2) ABT-627 was formulated in 2.5 and 10 mg doses. An oral liquid formulation of ABT-627 was also prepared as follows: 1 mg/ml ABT-627, 50% glycerin, 14% alcohol, and water. Matching placebos were also provided.
(§3) Markers of osteoblastic activity were assessed using […]. Bone markers include bone alkaline phosphatase (BAP), deoxypridinoline, and N-telopeptide of Type I collagen. Blood samples were collected prior to dosing on Day 1, Day 42, Day 84, Day 168, and every 28 days after Day 168, with a final collection on the last day of the study.
Cross-linked N-telopeptide levels were determined using the DiaSorin (Stillwater, MN) assay for the quantitative determination of carboxyterminal cross-linked telopeptide of type I collagen (ICTP) in human serum by equilibrium radioimmunoassay (RIA). […] The bound tracer in the pellet was counted with a gamma counter. […]

[2] = system: male subjects with hormone refractory prostate cancer; assay: Prostate specific antigen (PSA) level assay in serum of treated subjects; assay type: in vivo, human; conditions: subjects treated with placebo or 2.5 mg or 10 mg
Protocol: as §1, §2
A number of recognized or putative biochemical markers of disease progression have been used to monitor treatment of individuals with prostate cancer. […]
The effect of ABT-627 administeration on prostate specific antigen (PSA) levels in human subject serum samples was determined using the procedure described in the Chiron Diagnostics ACS: Centaur PSA2 Assay. […]
Briefly, a subject population was treated with a placebo or 2.5 mg or 10 mg of ABT-627. […] A direct relationship exists between the amount of PSA present in the patient sample and the RLU's (relative light units) detected.

[3] = system: male subjects with hormone refractory prostate cancer; assay: Chromagranin-A levels in serum of treated subjects; assay type: in vivo, human; conditions: 2.5 mg/day
Protocol: as §1, §2
The effect of ABT-627 adminstration on Chromagranin-A levels in human serum samples was determined by proprietary assay conducted at the Nichols Institute. The procedure is a two site chemiluminescence assay (ICMA) using one monoclonal antibody conjugated with biotin, another monoclonal antibody labeled with an acridinium ester, and an avidin-coated solid phase. The antibody/Chromagranin-A/antibody complex is bound to the solid phase by the avidin-biotin interaction and unbound materials are removed by washing. The bound, acridinium-labeled material produces light that is detected in a luminometer after addition of triggering agents. The Limit of Detection (LOD) for the assay was 0.07 ng/mL.

[4] = system: male subjects with hormone refractory prostate cancer; assay: Bone alkaline phosphatase (BAP) levels of treated subjects; assay type: in vivo, human; conditions: subjects treated versus placebo
Protocol: as §1, §2, §3
Bone Alkaline Phosphatase levels were determined using the bone-specific Alkphase-B® assay published by Metra Biosystems (Mountain View, Calif.).

[5] = Determination of plasma protein binding (ultrafiltration, HPLC); assay type: in vitro ADME; set-up: fraction unbound at 1 h: dose or concentration left out as unconfirmed; conditions: fresh plasma, 1 hour at room temperature, read-out: percent of bound compound (plasma protein binding, % PB) (converted)
Protocol: A stock solution of the test compound in 50% ethanol (2 mg/mL) was diluted 10× into PBS. A 0.4 mL sample of this secondary stock solution was added to 3.6 mL of fresh plasma, and incubated at room temperature for 1 hour. A 1 mL sample of this incubation mixture was transferred to a Centrifree ultrafiltration tube. The sample was centrifuged in a fixed-bucket rotor for approximately 2 min and the filtrate was discarded. The sample was centrifuged for another 15–30 min. A 100 μL sample of the ultrafiltrate was transfered to a micro HPLC sample vial containing […] of HPLC mobile phase and mixed thoroughly. A 50 μL sample was injected and the concentration of drug in the ultrafiltrate was determined by HPLC analysis compared against a standard sample prepared identically in the absence of plasma. Ultrafiltrate concentrations are calculated from a calibration curve. Protein binding is calculated according to the equation: % PB=[1−(Cu/Ci)]*100%
where Cu is the ultrafiltrate concentration and Ci is the initial plasma concentration.

| Compound | Crosslinked N-telopeptide levels (AUC, FIG. 4) [1] | rate of increase of PSA in serum (AUC, FIG. 2) [2] | average change from baseline for Chromagranin-A (AUC, FIG. 8) [3] | BAP levels (AUC, FIG. 5) [4] | fraction unbound at 1 h [5] |
| --- | --- | --- | --- | --- | --- |
| CCCCCN(CCCC)C(=O)CN1C[C@H](c2ccc3c(c2)OCO3)[C@@H](C(=O)O)[C@@H]1c1ccc(OC)cc1 [ABT-627] | Crosslinked N-telopeptide levels decreased | rate of increase of PSA in the serum samples decreases | the average change from baseline for Chromagranin-A was higher | BAP levels decreased |  |
| CCCCN(C(=O)CN1CC(c2ccc3c(c2)OCO3)C(C(=O)O)C1c1ccc(OC)cc1)c1cccnc1 (centres unmarked) [compound 531] |  |  |  |  | 0.08 |

Reference: patent US7208517B1, “Endothelin antagonists” (Abbott Labortories, priority 1994, dated 2007)
